This is an account of results in US20090136979A1, “Class IIA Histone Deacetylase (HDAC) Substrate” (ISTITUTO DI RICERCHE DI BIOLOGIA MOLECOLARE P. ANG, priority 2005, published 2009).

The subject of test [1] is HDAC from rat liver. Conditions: cited from earlier work.
Test [2] deals with HDAC3 (Homo sapiens, UniProt O15379). The test can be described thus: Activity on Boc-L-Lys(ε-trifluoroacetyl)-MCA compared with Biomol standard substrate, HDAC3. Conditions: HDAC3, FIG. 5. In kind it is biochemical. The source says:
(§1) The activities measured on Boc-L-Lys(ε-trifluoroacetyl)-MCA were compared with activities on the Biomol standard substrate (not shown).

Test [3] concerns the target HDAC1 (Homo sapiens, UniProt Q13547). The test can be described thus: Activity on Boc-L-Lys(ε-trifluoroacetyl)-MCA compared with Biomol standard substrate, HDAC1. It counts as biochemical. Conditions: HDAC1, FIG. 5.
Description: as §1

Test [4] has as its target T1, HDAC8 (Homo sapiens, UniProt Q9BY41).
T1 sequence (Q9BY41 1-377): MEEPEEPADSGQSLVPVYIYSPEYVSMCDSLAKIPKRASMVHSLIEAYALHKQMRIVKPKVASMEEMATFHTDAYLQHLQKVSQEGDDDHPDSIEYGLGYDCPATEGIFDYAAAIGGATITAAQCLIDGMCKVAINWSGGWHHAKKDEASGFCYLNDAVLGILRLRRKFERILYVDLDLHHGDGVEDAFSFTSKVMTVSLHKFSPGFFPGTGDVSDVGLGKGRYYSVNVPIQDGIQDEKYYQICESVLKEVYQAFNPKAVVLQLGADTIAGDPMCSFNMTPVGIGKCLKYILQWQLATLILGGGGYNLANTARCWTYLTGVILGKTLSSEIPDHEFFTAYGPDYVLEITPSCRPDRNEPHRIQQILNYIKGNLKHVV
Conditions: substrate of (recombinant) human HDAC8; cited from earlier work.

The target in test [5] is T1, HDAC8. In words: Activity on Boc-L-Lys(ε-trifluoroacetyl)-MCA compared with Biomol standard substrate, HDAC8. It counts as biochemical. Conditions: HDAC8, FIG. 5.
Description: as §1

For test [6], the target named is T2, HDAC4-CD (Homo sapiens, UniProt P56524).
T2 construct: The HDAC4 C-terminal region from T-653 to L-1084; 6xHis; made in house; host or cells: E. coli BL21 Star (DE3)
T2 sequence (P56524 653-1084): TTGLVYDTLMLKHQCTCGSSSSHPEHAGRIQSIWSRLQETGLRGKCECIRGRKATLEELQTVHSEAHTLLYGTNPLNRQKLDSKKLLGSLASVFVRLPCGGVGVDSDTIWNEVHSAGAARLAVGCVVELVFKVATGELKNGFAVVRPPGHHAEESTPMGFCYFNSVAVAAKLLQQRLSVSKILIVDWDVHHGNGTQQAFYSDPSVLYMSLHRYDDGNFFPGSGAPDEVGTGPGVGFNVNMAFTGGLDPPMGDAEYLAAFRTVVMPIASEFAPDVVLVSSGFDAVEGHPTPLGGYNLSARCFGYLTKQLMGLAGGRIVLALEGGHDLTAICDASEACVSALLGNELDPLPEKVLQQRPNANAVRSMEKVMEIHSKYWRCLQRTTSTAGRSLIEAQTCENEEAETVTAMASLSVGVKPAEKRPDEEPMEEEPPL
In words: Activity on Boc-L-Lys(ε-trifluoroacetyl)-MCA compared with Biomol standard substrate, HDAC4-CD. Conditions: FIG. 5. It counts as biochemical.
Description: as §1

Test [7] addresses T3, HDAC6 (Homo sapiens, UniProt Q9UBN7).
T3 sequence (Q9UBN7 1-1215): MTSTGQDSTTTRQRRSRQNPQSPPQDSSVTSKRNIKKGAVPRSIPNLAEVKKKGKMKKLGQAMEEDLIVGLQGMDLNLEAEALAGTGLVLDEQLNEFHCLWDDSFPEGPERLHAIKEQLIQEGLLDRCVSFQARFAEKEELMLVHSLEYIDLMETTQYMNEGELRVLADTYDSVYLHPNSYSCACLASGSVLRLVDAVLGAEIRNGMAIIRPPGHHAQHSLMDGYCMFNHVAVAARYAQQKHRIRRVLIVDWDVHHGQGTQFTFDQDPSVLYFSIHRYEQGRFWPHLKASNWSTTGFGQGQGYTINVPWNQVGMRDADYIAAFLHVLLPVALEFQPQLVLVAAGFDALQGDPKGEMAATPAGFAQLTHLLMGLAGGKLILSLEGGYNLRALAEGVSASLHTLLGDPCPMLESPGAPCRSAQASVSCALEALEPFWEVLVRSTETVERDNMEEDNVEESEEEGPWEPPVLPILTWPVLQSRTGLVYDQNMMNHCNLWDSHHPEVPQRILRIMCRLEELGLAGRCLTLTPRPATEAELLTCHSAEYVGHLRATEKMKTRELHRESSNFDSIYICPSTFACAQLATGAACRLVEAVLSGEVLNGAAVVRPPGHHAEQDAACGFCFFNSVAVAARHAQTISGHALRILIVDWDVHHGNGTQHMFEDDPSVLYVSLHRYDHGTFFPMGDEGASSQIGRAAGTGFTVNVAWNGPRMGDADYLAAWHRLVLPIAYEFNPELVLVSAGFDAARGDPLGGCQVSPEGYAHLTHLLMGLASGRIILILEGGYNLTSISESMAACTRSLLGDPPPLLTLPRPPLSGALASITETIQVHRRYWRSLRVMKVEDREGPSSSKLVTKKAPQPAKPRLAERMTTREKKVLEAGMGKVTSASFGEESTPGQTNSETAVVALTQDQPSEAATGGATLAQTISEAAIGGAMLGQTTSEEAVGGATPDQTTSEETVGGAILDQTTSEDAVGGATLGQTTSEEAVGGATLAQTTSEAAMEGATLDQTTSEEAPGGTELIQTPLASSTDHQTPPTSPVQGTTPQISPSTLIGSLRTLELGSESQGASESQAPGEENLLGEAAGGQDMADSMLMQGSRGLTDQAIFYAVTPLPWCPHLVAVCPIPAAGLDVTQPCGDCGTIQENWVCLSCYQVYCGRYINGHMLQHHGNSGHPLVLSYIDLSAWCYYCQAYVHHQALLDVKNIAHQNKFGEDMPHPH
In words: Activity on Boc-L-Lys(ε-trifluoroacetyl)-MCA compared with Biomol standard substrate, HDAC6. In kind it is biochemical. Conditions: HDAC6, FIG. 5.
Description: as §1

The target in test [8] is T4, HDAC4-FLAG (Homo sapiens, UniProt P56524).
T4 construct: the full length HDAC4protein (HDAC4-FLAG) was also analysed; FLAG (C); made in house
T4 sequence (P56524 whole entry): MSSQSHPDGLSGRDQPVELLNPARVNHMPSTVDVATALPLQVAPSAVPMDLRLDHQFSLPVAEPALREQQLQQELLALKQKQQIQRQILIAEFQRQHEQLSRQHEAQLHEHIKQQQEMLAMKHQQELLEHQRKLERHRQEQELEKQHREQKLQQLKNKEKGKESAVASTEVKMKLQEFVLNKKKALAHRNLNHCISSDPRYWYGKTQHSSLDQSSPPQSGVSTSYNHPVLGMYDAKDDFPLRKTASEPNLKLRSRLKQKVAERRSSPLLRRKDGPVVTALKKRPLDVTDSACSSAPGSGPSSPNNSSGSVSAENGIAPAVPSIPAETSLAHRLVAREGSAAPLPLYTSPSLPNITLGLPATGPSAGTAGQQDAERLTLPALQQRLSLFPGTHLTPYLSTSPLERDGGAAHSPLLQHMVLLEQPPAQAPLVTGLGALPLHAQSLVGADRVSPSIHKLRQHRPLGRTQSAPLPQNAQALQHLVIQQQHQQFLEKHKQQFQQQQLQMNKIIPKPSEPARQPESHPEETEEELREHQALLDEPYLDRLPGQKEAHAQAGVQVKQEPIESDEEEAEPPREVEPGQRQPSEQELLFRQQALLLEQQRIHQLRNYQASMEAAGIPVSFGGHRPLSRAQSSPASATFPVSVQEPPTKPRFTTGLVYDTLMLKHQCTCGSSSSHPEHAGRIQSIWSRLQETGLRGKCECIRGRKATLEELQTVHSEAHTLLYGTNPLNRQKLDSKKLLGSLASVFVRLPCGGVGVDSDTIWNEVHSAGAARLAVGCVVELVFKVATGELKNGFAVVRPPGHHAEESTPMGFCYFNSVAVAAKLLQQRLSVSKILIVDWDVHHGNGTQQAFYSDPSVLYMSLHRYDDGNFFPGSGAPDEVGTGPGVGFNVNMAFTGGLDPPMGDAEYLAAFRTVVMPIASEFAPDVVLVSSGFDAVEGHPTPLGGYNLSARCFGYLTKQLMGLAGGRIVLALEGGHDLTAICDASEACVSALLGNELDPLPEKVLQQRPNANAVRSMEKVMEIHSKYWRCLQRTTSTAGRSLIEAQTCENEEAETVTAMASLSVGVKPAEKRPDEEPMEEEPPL
It counts as binding. Conditions: cross-linking assay.

The target of test [9] is T2, HDAC4-CD. In words: Inhibition of HDAC4-CD activity on Lys-Trifluoro substrate. In kind it is biochemical. Conditions: HDAC4-CD 0.5 nM, FIG. 6.
Test [10] concerns HDAC4-FLAG. In words: Enzymatic activity of HDAC4-FLAG, inhibition (Biomol assay kit and histone substrates). Conditions: FIG. 2. In kind it is biochemical.

In general, Km refers to the substrate concentration at which the rate is half of its maximum.

Chain of HDAC1 (Q13547 whole entry): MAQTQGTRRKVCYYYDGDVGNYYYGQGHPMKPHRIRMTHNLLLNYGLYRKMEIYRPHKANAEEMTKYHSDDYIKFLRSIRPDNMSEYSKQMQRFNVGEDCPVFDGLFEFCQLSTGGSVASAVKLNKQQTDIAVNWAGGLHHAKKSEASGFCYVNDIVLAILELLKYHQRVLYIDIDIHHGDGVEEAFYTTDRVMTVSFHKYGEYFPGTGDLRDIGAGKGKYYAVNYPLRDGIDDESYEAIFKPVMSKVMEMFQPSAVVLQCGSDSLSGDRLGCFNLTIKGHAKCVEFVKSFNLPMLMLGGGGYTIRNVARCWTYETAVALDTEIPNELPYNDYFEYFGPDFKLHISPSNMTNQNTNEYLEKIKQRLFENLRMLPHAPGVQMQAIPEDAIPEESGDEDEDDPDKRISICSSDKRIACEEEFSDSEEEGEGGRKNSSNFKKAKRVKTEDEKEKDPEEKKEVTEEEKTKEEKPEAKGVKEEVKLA
Chain of HDAC3 (O15379 whole entry): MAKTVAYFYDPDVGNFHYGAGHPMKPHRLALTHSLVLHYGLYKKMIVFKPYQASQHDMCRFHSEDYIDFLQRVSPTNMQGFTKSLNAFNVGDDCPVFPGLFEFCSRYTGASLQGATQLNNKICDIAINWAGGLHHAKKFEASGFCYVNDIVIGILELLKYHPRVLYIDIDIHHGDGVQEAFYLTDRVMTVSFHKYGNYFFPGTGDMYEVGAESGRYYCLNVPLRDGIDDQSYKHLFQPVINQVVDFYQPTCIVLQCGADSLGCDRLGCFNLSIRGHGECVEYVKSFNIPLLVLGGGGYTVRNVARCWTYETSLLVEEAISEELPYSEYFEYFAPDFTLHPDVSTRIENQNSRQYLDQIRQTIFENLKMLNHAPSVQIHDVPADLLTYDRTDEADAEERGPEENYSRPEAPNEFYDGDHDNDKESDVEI
Chain of HDAC3 (Q9Y618 whole entry partner): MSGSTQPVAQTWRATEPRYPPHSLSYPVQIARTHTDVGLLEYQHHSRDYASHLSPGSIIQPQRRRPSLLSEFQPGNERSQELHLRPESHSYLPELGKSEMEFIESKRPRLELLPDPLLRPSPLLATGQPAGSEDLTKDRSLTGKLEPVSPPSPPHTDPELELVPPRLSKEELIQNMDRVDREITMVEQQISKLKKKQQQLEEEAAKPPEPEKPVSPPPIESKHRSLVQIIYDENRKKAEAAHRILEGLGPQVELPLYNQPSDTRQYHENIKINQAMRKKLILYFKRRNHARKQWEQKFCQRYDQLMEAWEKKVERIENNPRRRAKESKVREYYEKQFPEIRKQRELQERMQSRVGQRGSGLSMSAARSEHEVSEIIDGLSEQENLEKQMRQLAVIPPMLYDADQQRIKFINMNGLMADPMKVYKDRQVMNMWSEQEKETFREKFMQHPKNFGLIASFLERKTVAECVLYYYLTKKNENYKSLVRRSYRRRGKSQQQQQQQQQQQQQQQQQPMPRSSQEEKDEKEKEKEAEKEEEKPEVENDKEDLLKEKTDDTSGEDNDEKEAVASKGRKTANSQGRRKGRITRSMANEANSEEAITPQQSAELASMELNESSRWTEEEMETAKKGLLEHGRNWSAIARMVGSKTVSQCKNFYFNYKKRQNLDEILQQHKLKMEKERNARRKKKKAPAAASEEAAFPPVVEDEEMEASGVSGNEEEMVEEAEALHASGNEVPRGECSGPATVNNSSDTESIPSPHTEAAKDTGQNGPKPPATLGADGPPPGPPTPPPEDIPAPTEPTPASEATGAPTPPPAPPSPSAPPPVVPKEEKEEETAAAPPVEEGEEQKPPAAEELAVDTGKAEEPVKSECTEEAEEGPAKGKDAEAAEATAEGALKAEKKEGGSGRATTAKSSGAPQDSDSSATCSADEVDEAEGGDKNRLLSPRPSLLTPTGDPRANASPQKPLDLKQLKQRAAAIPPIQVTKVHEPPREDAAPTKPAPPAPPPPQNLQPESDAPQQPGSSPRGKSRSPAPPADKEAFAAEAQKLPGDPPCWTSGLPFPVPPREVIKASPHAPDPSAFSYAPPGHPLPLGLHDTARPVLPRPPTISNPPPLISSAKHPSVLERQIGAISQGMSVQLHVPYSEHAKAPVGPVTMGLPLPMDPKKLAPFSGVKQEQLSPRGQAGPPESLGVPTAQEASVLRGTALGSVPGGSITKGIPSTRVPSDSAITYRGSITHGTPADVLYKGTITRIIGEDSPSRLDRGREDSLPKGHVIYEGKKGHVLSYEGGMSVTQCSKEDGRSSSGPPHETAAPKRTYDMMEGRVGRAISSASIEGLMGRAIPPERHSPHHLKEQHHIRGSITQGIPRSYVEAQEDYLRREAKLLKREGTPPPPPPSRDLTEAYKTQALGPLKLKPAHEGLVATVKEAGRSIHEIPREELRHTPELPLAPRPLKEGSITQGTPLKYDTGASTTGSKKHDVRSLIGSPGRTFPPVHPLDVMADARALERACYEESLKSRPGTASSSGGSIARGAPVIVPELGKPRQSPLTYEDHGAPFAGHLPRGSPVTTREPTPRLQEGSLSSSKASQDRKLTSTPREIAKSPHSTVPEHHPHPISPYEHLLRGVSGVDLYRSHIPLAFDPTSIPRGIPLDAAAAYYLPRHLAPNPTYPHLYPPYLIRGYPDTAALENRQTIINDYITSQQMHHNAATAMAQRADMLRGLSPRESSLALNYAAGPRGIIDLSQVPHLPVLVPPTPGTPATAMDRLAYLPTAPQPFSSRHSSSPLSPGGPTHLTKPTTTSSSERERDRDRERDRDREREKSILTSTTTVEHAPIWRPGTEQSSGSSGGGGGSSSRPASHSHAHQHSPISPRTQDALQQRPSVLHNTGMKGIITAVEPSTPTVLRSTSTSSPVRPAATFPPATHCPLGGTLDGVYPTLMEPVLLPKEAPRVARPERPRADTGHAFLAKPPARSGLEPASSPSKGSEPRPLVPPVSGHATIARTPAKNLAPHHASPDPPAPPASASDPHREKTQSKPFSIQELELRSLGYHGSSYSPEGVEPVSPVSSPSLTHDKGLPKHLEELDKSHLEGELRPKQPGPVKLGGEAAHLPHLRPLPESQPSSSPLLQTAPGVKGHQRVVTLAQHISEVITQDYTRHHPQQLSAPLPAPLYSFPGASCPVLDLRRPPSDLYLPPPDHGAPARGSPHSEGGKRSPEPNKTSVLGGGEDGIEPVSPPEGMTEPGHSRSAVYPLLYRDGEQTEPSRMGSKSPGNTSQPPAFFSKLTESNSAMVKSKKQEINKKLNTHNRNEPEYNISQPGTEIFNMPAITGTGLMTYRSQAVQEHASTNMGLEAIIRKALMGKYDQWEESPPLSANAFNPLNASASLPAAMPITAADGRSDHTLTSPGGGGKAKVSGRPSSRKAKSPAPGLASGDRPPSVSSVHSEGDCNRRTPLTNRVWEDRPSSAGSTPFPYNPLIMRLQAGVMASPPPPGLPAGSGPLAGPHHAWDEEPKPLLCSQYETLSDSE

With `CC(=O)NCCCC[C@H](NC(=O)OC(C)(C)C)C(=O)Nc1ccc2c(C)cc(=O)oc2c1` [Boc-L-Lys(ε-acetyl)-MCA, reference compound], the Km in test [1] (substrate of HDAC from rat liver (mixture of HDAC1, 2 and 3)) was 3.7 µM.

In the case of `Cc1cc(=O)oc2ccc(NC(=O)[C@H](CCCCNC(=O)C(F)(F)F)NC(=O)OC(C)(C)C)cc12` [Boc-L-Lys(ε-trifluoroacetyl)-MCA, tert-Butyl [(1S)-5-(trifluoroacetylamino)-1-[[(4-methyl-2-oxo-2H-1-benzopyran-6-yl)amino]carbonyl]pentyl]-carbamic Acid Ester], the “conversion of substrate by rat liver HDAC” value in test [1] (rat liver HDAC) was “did not convert”. For the same molecule, the “enzyme activity on substrate compared with Biomol standard substrate” value was “works with the same efficiency” in [2]; “did not work” in test [3]; “work better” in [5]; “work better” in test [6]; “did not work” in test [7]. The Km in [4] was 247 µM.

Regarding `O=C(/C=C/c1ccc(CN(CCO)CCc2c[nH]c3ccccc23)cc1)NO` [LAQ824], the “binding to HDAC4-FLAG” value in test [8] was “able to significantly and specifically bind”. Besides, the “inhibition of HDAC4-CD activity on Lys-Trifluoro substrate” value in test [9] is “inhibited”.

For the molecule `Nc1ccccc1NC(=O)c1ccc(CNC(=O)OCc2cccnc2)cc1` [MS27-275], in [10], the inhibition constants entry is reported as “good inhibition constants”.
